Measured values: patent US9562034B2, “Endoparasite control agent” (The University of Tokyo, priority 2012, dated 2017)
Where two headings read alike, the source gives them in different places.

What was measured:
[1] = biological target: T1, Ascaris suum succinate-ubiquinone reductase (mitochondrial complex II) (Ascaris suum, UniProt O44074+P92506+P92507); experiment: In vitro inhibitory activity on Ascaris suum succinate-ubiquinone reductase (mitochondrial complex II); assay type: biochemical
T1 construct: from tissue; host or cells: mitochondria from adult Ascaris suum muscle
Protocol: In Vitro Measurement of Inhibitory Activity on Ascaris suum Succinate-Ubiquinone Reductase (Mitochondrial Complex II)
To a solution containing 50 mM potassium phosphate (pH 7.4) and 0.1% (w/v) sucrose monolaurate, an electron acceptor ubiquinone-2 (UQ2) was added at a final concentration of 60 μM, and the mixture was allowed to stand at 25° C. for 20 minutes. To this, potassium cyanide (final concentration: 2 mM) and mitochondria prepared from adult Ascaris suum muscle were added, and thorough mixing was done. To aliquots of the mixture, an inhibitor to be tested was added at various concentrations, and the mixtures were allowed to stand at 25° C. for 3 minutes. The enzymatic reaction was initiated by addition of potassium succinate (final concentration: 10 mM).

[2] = system: Haemonchus contortus L1-stage larvae; experiment: In vivo activity test on Haemonchus nematode (motor ability of L1-stage larvae, 96-well plate); conditions: twenty L1-stage larvae per well, 27° C./95% RH for 4 days, DMSO 0.78% (v/v)
Protocol: In Vivo Activity Test on Haemonchus Nematode
In a 96-well plate, twenty L1-stage larvae (Haemonchus contortus) per well were maintained so that they could freely move, and solutions of compounds of the present invention dissolved at predetermined concentrations in DMSO (the final concentration of DMSO was 0.78% (v/v)) were added at 0.5 μl/well each. The plate was kept under the conditions of 27° C./95% RH for 4 days. The motor ability of the larvae was examined and the concentration required for 50% inhibition of the motor ability (EC50) was determined. Based on the EC50 value, the activity against the Haemonchus nematode was graded according to the criterion shown below.
• A: The EC50 value is lower than 0.5 ppm. • B: The EC50 value is 0.5 ppm or higher but lower than 5 ppm. • C: The EC50 value is 5 ppm or higher.

[3] = mitochondria from adult Ascaris suum muscle, UQ2 60 μM, potassium succinate 10 mM, 25° C., absorbance at 278 nm, read-out: Ascaris suum IC50 value (A)

T1 sequence (O44074 22-282): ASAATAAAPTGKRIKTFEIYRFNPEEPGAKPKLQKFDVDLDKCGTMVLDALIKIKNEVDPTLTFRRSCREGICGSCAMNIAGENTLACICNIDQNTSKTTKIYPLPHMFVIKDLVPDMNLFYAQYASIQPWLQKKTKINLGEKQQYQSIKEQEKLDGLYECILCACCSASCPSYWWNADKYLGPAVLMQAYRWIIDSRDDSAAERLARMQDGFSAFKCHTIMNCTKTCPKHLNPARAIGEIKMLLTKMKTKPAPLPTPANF
T1 sequence (P92506 32-188): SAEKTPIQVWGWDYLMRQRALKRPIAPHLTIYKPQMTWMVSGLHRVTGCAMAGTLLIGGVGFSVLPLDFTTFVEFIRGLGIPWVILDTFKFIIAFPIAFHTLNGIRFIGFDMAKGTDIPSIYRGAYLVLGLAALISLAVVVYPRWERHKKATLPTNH
T1 sequence (P92507 26-156): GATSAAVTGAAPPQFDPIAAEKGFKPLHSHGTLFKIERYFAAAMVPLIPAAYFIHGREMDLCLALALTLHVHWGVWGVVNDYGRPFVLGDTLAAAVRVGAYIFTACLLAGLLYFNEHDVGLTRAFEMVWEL
T1 sequence (Q33862 19-645 partner): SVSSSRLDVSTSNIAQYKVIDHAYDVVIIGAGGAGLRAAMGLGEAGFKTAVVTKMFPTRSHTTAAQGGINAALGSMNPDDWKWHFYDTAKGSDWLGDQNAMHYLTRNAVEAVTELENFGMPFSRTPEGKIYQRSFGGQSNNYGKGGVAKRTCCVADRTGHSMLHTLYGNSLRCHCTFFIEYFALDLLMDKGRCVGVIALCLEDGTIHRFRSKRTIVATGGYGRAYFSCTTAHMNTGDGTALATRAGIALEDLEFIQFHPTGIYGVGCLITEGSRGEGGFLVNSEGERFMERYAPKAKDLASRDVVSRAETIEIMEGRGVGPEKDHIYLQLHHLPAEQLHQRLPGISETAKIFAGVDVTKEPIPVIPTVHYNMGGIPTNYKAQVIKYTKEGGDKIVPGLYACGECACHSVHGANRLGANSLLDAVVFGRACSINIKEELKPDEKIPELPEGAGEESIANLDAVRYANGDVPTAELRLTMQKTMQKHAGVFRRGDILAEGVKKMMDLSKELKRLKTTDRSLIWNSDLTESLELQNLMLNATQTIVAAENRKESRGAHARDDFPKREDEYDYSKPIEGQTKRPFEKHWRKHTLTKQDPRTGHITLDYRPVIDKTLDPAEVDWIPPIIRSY

| Compound | IC50 [1, 3] | Grade (EC50, concentration required for 50% inhibition of the motor ability) [2] | IC50 [1] |
| --- | --- | --- | --- |
| O=C(NCCc1cc(F)c(F)cc1Cl)c1nccnc1C(F)(F)F [Compound 27] | 2.2 nM | – | – |
| O=C(NCCc1ccc(Cl)cc1Cl)C1=C(C(F)(F)F)OCCS1 [Compound 33] | – | A (The EC50 value is lower than 0.5 ppm.) | 7.3 nM |
| CC(Cc1ccc(Cl)cc1Cl)NC(=O)c1nccnc1Cl (stereo not drawn) [Compound 14] | 3.3 nM | – | – |
| CC(Cc1ccc(Cl)cc1Cl)NC(=O)c1nccnc1C(F)(F)F (stereo not drawn) [Compound 15] | – | A (The EC50 value is lower than 0.5 ppm.) | – |
| Cc1nc(C(F)(F)F)c(C(=O)NCCc2ccc(Cl)cc2Cl)s1 [Compound 38] | – | B (The EC50 value is 0.5 ppm or higher but lower than 5 ppm.) | – |
| C[C@@H](COc1ncc(C(F)(F)F)cc1Cl)NC(=O)c1cccnc1Cl [Compound 44] | 20 nM | – | – |
| C[C@@H](Cn1nc(Br)c(Br)c1Br)NC(=O)c1cccnc1C(F)(F)F [Compound 42] | 13 nM | – | – |
| O=C(NCC1(c2ccc(Cl)cc2Cl)CC1)c1nccnc1C(F)(F)F [Compound 16] | 1.5 nM | A (The EC50 value is lower than 0.5 ppm.) | – |
| O=C(NCCc1ccc(C(F)(F)F)cc1Cl)c1nccnc1C(F)(F)F [Compound 19] | 1.3 nM | A (The EC50 value is lower than 0.5 ppm.) | – |
| O=C(NC1(Cc2ccc(Cl)cc2Cl)CC1)c1nccnc1C(F)(F)F [Compound 18] | 3.1 nM | – | – |
| O=C(NCCc1ncc(C(F)(F)F)cc1Cl)c1cccnc1Cl [Compound 1] | 47 nM | A (The EC50 value is lower than 0.5 ppm.) | – |
| O=C(NCCc1ccc(Cl)cc1Cl)c1nccnc1C(F)(F)F [Compound 9] | – | A (The EC50 value is lower than 0.5 ppm.) | – |
| Cc1nccnc1C(=O)NCCc1ccc(-c2ccc(OC(F)(F)F)cc2)cc1 [Compound 48] | – | A (The EC50 value is lower than 0.5 ppm.) | – |
| Cc1c(C(=O)NCCc2ccc(Cl)cc2Cl)c(C(F)(F)F)nn1C [Compound 35] | – | B (The EC50 value is 0.5 ppm or higher but lower than 5 ppm.) | – |
| O=C(NCCc1ccc(F)cc1Cl)c1nccnc1C(F)(F)F [Compound 11] | 3.4 nM | – | – |
| C[C@@H](Cn1nc(Br)c(Br)c1Br)NC(=O)c1cccnc1Cl [Compound 41] | 42 nM | – | – |
| O=C(NCCc1ccc(Oc2ccc(C(F)(F)F)cn2)cc1Cl)c1cccnc1Cl [Compound 45] | 4.5 nM | – | – |
| C[C@@H](Cn1nc(C(F)(F)F)c(Cl)c1Cl)NC(=O)c1nccnc1C(F)(F)F [Compound 43] | 9.9 nM | – | – |
| CC(Cc1ccc(Cl)cc1F)NC(=O)c1nccnc1Cl (stereo not drawn) [Compound 23] | 10 nM | A (The EC50 value is lower than 0.5 ppm.) | – |
| O=C(NCCc1ccc(Cl)cc1Cl)c1cnccc1C(F)(F)F [Compound 31] | 42 nM | – | – |

| Compound | IC50 [1, 3] | Grade (EC50, concentration required for 50% inhibition of the motor ability) [2] | IC50 [1] |
| --- | --- | --- | --- |
| CC(Cc1cc(F)c(F)cc1Cl)NC(=O)c1nccnc1C(F)(F)F (stereo not drawn) [Compound 26] | 2.9 nM | – | – |
| O=C(NCCc1cc(F)c(Cl)cc1F)c1cccnc1Cl [Compound 25] | 18 nM | A (The EC50 value is lower than 0.5 ppm.) | – |
| O=C(NCCc1ccc(Oc2ncc(C(F)(F)F)cc2Cl)cc1Cl)c1nccnc1C(F)(F)F [Compound 21] | 1.3 nM | A (The EC50 value is lower than 0.5 ppm.) | – |
| Nc1nc(C(F)(F)F)c(C(=O)NCCc2ccc(Cl)cc2Cl)s1 [Compound 2] | 57 nM | – | – |
| O=C(NCCc1ccc(-c2ccc(OC(F)(F)F)cc2)cc1F)c1nccnc1Cl [Compound 17] | – | A (The EC50 value is lower than 0.5 ppm.) | 2 nM |
| CC(Cc1ccc(Cl)cc1Cl)NC(=O)c1nccnc1I (stereo not drawn) [Compound 47] | – | – | 2.3 nM |
| O=C(NCCc1ncc(C(F)(F)F)cc1Cl)c1nccnc1C(F)(F)F [Compound 3] | 9.4 nM | A (The EC50 value is lower than 0.5 ppm.) | – |
| O=C(NCCc1ccc(Oc2ncc(C(F)(F)F)cc2Cl)cc1Cl)c1cccnc1Cl [Compound 22] | 1.7 nM | A (The EC50 value is lower than 0.5 ppm.) | – |
| O=C(NCCc1cc(F)c(Cl)cc1Cl)c1nccnc1C(F)(F)F [Compound 28] | 1.3 nM | A (The EC50 value is lower than 0.5 ppm.) | – |
| O=C(NCC1(c2ccc(Cl)cc2Cl)CC1)c1nccnc1Cl [Compound 13] | 2.7 nM | A (The EC50 value is lower than 0.5 ppm.) | – |
| Cc1occc1C(=O)NCCc1ccc(Cl)cc1Cl [Compound 50] | 1.6 nM | – | – |
| O=C(NCCc1ccc(Cl)cc1F)c1nccnc1C(F)(F)F [Compound 20] | 4.9 nM | – | – |
| O=C(NCCc1ccc(Cl)cc1Cl)c1sccc1C(F)(F)F [Compound 7] | 1.1 nM | A (The EC50 value is lower than 0.5 ppm.) | – |
| Cc1nccnc1C(=O)NCCc1ccc(-c2ccc(OC(F)(F)F)cc2)cc1 [Compound 5] | 26 nM | – | – |
| O=C(NCCc1cc(F)c(Cl)cc1Cl)c1cccnc1Cl [Compound 29] | 6.7 nM | – | – |
| O=C(NCCc1ccc(Cl)cc1Cl)c1cccnc1C(F)(F)F [Compound 6] | 4.4 nM | A (The EC50 value is lower than 0.5 ppm.) | – |
| O=C(NCCc1ccc(-c2ccc(OC(F)(F)F)cc2)cc1Cl)c1nccnc1C(F)(F)F [Compound 4] | 1.3 nM | – | – |
| Cc1cccnc1C(=O)NCCc1ccc(Cl)cc1Cl [Compound 30] | 6 nM | – | – |
| O=C(NCCc1cc(F)c(Cl)cc1F)c1nccnc1C(F)(F)F [Compound 24] | 2 nM | A (The EC50 value is lower than 0.5 ppm.) | – |
